Laboratory results taken from publication PMC6161288, “Bioavailability of Eurycomanone in Its Pure Form and in a Standardised Eurycoma longifolia Water Extract” (Pharmaceutics, 2018).

Columns and labels:
[1] = Parallel artificial membrane permeability assay (PAMPA); format: in vitro ADME; conditions: pH 7.4, 18 h, room temperature, read-out: permeation through artificial membrane (PAMPA)
Protocol: Eurycomanone was added to Pion buffer (Pion Inc., Billerica, MA, USA) pH 7.4 to make a 10 µM working solution. Five microlitres of the lipid mix was applied on the membrane and allowed to dry for 10 min. The working solution (200 µL) was added to the donor plate and Pion buffer (200 µL) were added to the receiver plate. The plate was kept in a moist chamber and left for 18 h at room temperature. The solution from both the donor and receiver plate and the working solution was analysed using LC-MS/MS. This test was carried out in triplicates using propranolol, atenolol, and carbamazepine as standards. The test concentration for eurycomanone is […].

[2] = Liver microsome metabolic stability, human; format: in vitro ADME; conditions: human liver microsomes
Protocol: The liver microsome stability assay of eurycomanone was estimated using phase I and phase II enzymes in five types of microsomes (mice, rat, dog, monkey, and human). Eurycomanone at 1 mM (20 µL), microsomes at 0.3 mg/mL (20 µL), and 10 mg/mL of alamethicin in 1:1 DMSO and methanol (20 µL) were preincubated at 37 °C for 10 min. The cofactor, 5 mM UDPGA (20 µL), and 1 mM NADPH (20 µL) were added to make the final assay volume of 100 µL. At timepoints 0, 15, 30, 45, 60, and 90 min, […] of the reaction mixture is taken out and added to the stop solution. The supernatants (10,000 rpm, 10 min, 4 °C) were collected and analysed using LC-MS/MS. The standards used for mice and rat liver microsomes were propranolol and dasatinib. The standards used with the dog and monkey liver microsomes were propranolol and midazolam, while the standards used with the human liver microsomes were propranolol and terfinadine.

[3] = Pharmacokinetics of eurycomanone (pure compound) in rats (intravenous and oral); format: in vivo; conditions: male, Wistar, rat, plasma; for AUC(0-t): read-out: AUC0–8
From the text: (§1) The ethical approval for the animal experiments conducted in India was granted from the Animal Ethics Committee, Aurigene Discovery Technologies, Bangalore, India. Eight male Wistar rats (12 weeks old; weighing 250–350 g) and eight Caeserean Derived-1 (CD-1) mice (weighing 20–30 g) were obtained from the Animal House, Aurigene Discovery Technologies, Bangalore, India. They were supplied with standard rodent diets and drinking water ad libitum. Each rodent species (i.e., rats and mice) were divided into two groups. One group (n = 3 for each rodent species) was administered with eurycomanone via the intravenous route (IV) and another group (n = 3 for each rodent species) via the oral route (PO) using oral gavage intubation needle. Two animals of each of the species were used as a control and they received reverse osmosis water. All rats underwent jugular vein cannulation surgery 72 h prior to the administration of the eurycomanone.
(§2) Eurycomanone (rats: 1.5 mg/mL for IV route and 3.0 mg/mL for PO route; mice: 0.5 mg/mL for IV route and 1.0 mg/mL for PO route) samples were prepared fresh on the day of dosing. For the IV administration, eurycomanone was dissolved in 3% NMP and 97% of 10% HPCD in saline. For the oral administration, eurycomanone was dissolved in 3% NMP and 97% of 30% HPCD in saline. Both samples were sonicated before use. The SWE (5 mg/mL for IV route, 10 mg/mL for PO route) was prepared fresh on the day of dosing. For the IV administration, the SWE was dissolved in reverse osmosis water and filtered (0.2 µm pore size) before administration. The SWE for the PO administration was prepared using the same method, except without filtering. The animals were not fasted and doses given were based on the body weights prior to dosing.
(§3) Blood specimens (approximately 0.30–0.40 mL via the jugular vein cannula for rats and 0.10–0.20 mL via submanibular bleeding for mice) were collected at time points 0.083 (IV group only), 0.25, 0.5, 1, 2, 4, 6, and 8 h post-dosing with eurycomanone. At the experiment end point, the animals were euthanized by excess isoflurane inhalation followed by cervical dislocation. In the experiment using SWE, the rats were placed in metabolic cages (Techniplast, West Chester, PA, USA) and blood (approximately 0.30–0.40 mL collected via the jugular vein cannula), urine, and faeces specimens were collected at the same time points with the above plus one additional time point of 24 h. Kidney and liver specimens were collected at necropsy, where the rats were euthanized by CO2 inhalation followed by cervical dislocation. All blood specimens were centrifuged (10,000 rpm, 10 min) to obtain plasma and were stored at −80 °C until processed. Urine and faeces specimens were collected into plastic containers on wet ice while the organ specimens were snap-frozen in liquid nitrogen and maintained at −80 °C until processed.
(§4) Plasma specimens (100 µL), collected from the eurycomanone experiment were added with the internal standard solution (10 µL). Plasma proteins were precipitated with ACN (300 µL), vortex-mixed for 5 min, and centrifuged at 4000 rpm for 7 min. The supernatant was collected and evaporated using a nitrogen evaporator for 20 min at 50 °C. Thereafter, they were reconstituted with the mobile phase (500 µL) and transferred into LC-MS vials for analysis.
(§5) Eurycomanone detection in the pure eurycomanone experiments was done via the LC-MS/MS system consisting of an Agilent 1260 Infinity HPLC system and an AB SCIEX API 4000™ Triple-Quadrupole mass spectrometer equipped with TurboIonSpray® probe and atmospheric pressure chemical ionization (APCI) (AB Sciex LLC, Framingham, MA, USA). Electrospray ionization (ESI) was performed in positive ion mode. The analytical column was Agilent Zorbax Eclipse-C18 (4.6 mm I.D. × 150 mm, 3.5 µm). The mobile phase consisted of 0.1% formic acid (solvent A) and 90% ACN with 0.1% formic acid (solvent B). […]

[4] = Pharmacokinetics of eurycomanone in mice (intravenous and oral); format: in vivo, CD-1 mice; conditions: plasma; for AUC(0-t): read-out: AUC0–8
From the text: as §1, §2, §3, §4, §5

[5] = Plasma stability, monkey; format: in vitro ADME; conditions: 5 µM, 37 °C, up to 4 h, compared with human, rat and dog plasma
Protocol: (§6) The plasma stability was estimated by preparing 5 µM of eurycomanone in 600 µL plasma in triplicates. The plasma stability of eurycomanone was determined in five types of plasma (mice, rat, dog, monkey, and human). The reaction was kept at 37 °C and ACN (100 µL) was added at timepoints 0, 30 min, and 1, 2, and 4 h to the reaction mixture (100 µL). The supernatant (10,000 rpm, 10 min, 4 °C) was collected and analysed by LC-MS/MS. The standards (propantheline bromide and enalapril) were analysed in triplicates.

[6] = Plasma stability, dog; format: in vitro ADME; conditions: 5 µM, 37 °C, up to 4 h
Protocol: as §6

C=C1[C@@H](O)[C@]2(O)OC[C@]34[C@H]2[C@@]2(C)[C@H](O)C(=O)C=C(C)[C@@H]2C[C@H]3OC(=O)[C@H](O)[C@@]14O [Eurycomanone]
Papp at 18 h, 25 µM [1]: 0.78 ×10⁻⁶ cm/s
Half-life (t1/2) [2]: >1.5 h
half-life at 200 µM [2]: > 1.5 h
CLint scaled at 200 µM ([2]; read-out: Intrinsic clearance (Clint)): 52.4 mL/min/kg
AUC(0-t) ([3]; 3 mg/kg intravenous): 970 ng·h/mL
AUC(0-t) ([3]; 30 mg/kg oral): 1150 ng·h/mL
Cmax ([3]; 30 mg/kg oral, read-out: Observed Cmax): 238 ng/mL
half-life ([3]; 3 mg/kg intravenous, read-out: Half-life (t1/2) (converted)): 0.3 h
clearance ([3]; 3 mg/kg intravenous, read-out: Plasma Clearance (CL) (converted)): 45.7 mL/min/kg
Vd ([3]; 3 mg/kg intravenous, read-out: Volume of Distribution at Steady State (Vss)): 0.95 L/kg
bioavailability ([3]; 30 mg/kg oral vs 3 mg/kg intravenous, read-out: Bioavailability (F)): 11.8%
Tmax ([3]; 30 mg/kg oral, read-out: Observed Tmax): 2 h
Observed Cmax ([4]; 10 mg/kg oral, 10 mg/kg): 334.7 ng/mL
AUC(0-t) ([4]; CD-1, mouse, 1 mg/kg intravenous): 221 ng·h/mL
AUC(0-t) ([4]; CD-1, mouse, 10 mg/kg oral): 1210 ng·h/mL
half-life ([4]; CD-1, mouse, 1 mg/kg intravenous, read-out: Half-life (t1/2) (converted)): 0.3 h
clearance ([4]; CD-1, mouse, 1 mg/kg intravenous, read-out: Plasma Clearance (CL) (converted)): 64.2 mL/min/kg
Vd ([4]; CD-1, mouse, 1 mg/kg intravenous, read-out: Volume of Distribution at Steady State (Vss)): 1.51 L/kg
bioavailability ([4]; CD-1, mouse, 10 mg/kg oral vs 1 mg/kg intravenous, read-out: Bioavailability (F)): 54.9%
Tmax ([4]; CD-1, mouse, 10 mg/kg oral, read-out: Observed Tmax): 2 h
Cmax ([4]; CD-1, mouse, po, 10 mg/kg, 10 mg/kg oral, read-out: Observed Cmax): 335 ng/mL
plasma stability [5]: slightly lower
plasma stability [6]: highly stable
